From US8546529B2, “Injectable bone regeneration gel containing bone formation enhancing peptide” (Nano Intelligent Biomedical Engineering Corporation Co., …, priority 2007, dated 2013)

Tested on: Mesodermal stem cells C2C12
Assay: Calcification of cells by bone regeneration materials (calcein fluorescence)
Format: cell-based
Conditions: C2C12 cultured for 14 days in medium for hard tissue formation containing calcein; compared with material containing no peptide
Description: Mesodermal stem cells C2C12 (America Type Culture Collection, CRL-1772) were cultured for 14 days, while adding the injectable bone regeneration materials prepared in Example 1 to a medium for hard tissue formation, containing calcein (fluorescent substance for calcium). The cultured osteoblasts were fixed with 2% glutaraldehyde solution. The fixed cells were treated with 1% triton X-100, and then nuclei were strained with DAPI (blue) and actins were stained with Rhodamine phalloidin (Molecular Probe, red), thus staning the cultured cells.

Sequence: YGLRSKSKKFRRPDIQYPDAT (listed as Homo sapiens) [SEQ ID NO: 6]
- calcification (calcium fluorescence deposited on extracellular matrixes): promotes calcification of cells
